Measurements reported in US10294202B2, “Pyrrolidinones as herbicides” (FMC Corporation, priority 2013, dated 2019).

What was measured:
barnyardgrass [1] = experiment: Test A pre-/postemergence herbicide test; type: in vivo, Echinochloa crus-galli; settings: for Plant response rating, Barnyardgrass: 0 to 100 scale
Outline: (§1)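 Both application timings used compounds in a non-phytotoxic solvent plus surfactant. Pre-emergence: soil sprayed directly after seeding into loam/sand. Post-emergence: foliage of 2–10 cm seedlings (1–2 leaves) sprayed. Injury rated ~10 days later, 0–100.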

pigweed = experiment: Test A pre-/postemergence herbicide test; type: in vivo, Amaranthus retroflexus; settings: for Plant response rating, Pigweed: 0 to 100 scale
Outline: as §1

corn [2] = experiment: Test A pre-/postemergence herbicide test; type: in vivo, Zea mays; settings: Postemergence
Outline: as §1

rice = experiment: Test B flooded paddy test; type: in vivo, Oryza sativa; settings: 500 g ai/ha, Flood; scale of 0 to 100 where 0 is no effect and 100 is complete control
Outline: (§2)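 Paddy-water application at a 3 cm flood, young plants having two leaves. Water level maintained; greenhouse, 13–15 days; visual 0–100 control rating.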

ducksalad = experiment: Test B flooded paddy test; type: in vivo, Heteranthera limosa; settings: 500 g ai/ha, Flood; scale of 0 to 100 where 0 is no effect and 100 is complete control
Outline: as §2

barnyardgrass [3] = experiment: Test B flooded paddy test; type: in vivo, Echinochloa crus-galli; settings: 500 g ai/ha, Flood; scale of 0 to 100 where 0 is no effect and 100 is complete control
Outline: as §2

corn [4] = experiment: Test C pre-/postemergence herbicide test; type: in vivo, Zea mays
Outline: (§3)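 Herbicidal effect was judged by eye 13 to 15 days after treatment in the greenhouse, using a 0–100 scale against controls. Chemicals in a non-phytotoxic solvent with surfactant were sprayed onto planted loam/sand soil or onto plants 2 to 18 cm tall in a peat-based growing medium.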

foxtail, giant = experiment: Test C pre-/postemergence herbicide test; type: in vivo, Setaria faberii
Outline: as §3

nutsedge, yellow = experiment: Test C pre-/postemergence herbicide test; type: in vivo, Cyperus esculentus
Outline: as §3

soybean = experiment: Test C pre-/postemergence herbicide test; type: in vivo, Glycine max
Outline: as §3

barnyardgrass [5] = experiment: Test C pre-/postemergence herbicide test; type: in vivo, Echinochloa crus-galli
Outline: as §3

oilseed rape = experiment: Test C pre-/postemergence herbicide test; type: in vivo, Brassica napus
Outline: as §3

[6] = 125 g ai/ha, visual rating, 0 no effect, 100 complete control, approximately 10 days, preemergence
[7] = Postemergence, 125 g ai/ha, 0 is no effect, 100 is complete control
[8] = preemergence, 500 g ai/ha, 0 is no effect and 100 is complete control
[9] = Postemergence, 31 g ai/ha, scale 0 to 100 (0 no effect, 100 complete control)
[10] = Postemergence, 62 g ai/ha, scale 0 (no effect) to 100 (complete control)
[11] = Postemergence, 125 g ai/ha, scale 0 to 100 (0 no effect, 100 complete control)
[12] = Postemergence, 250 g ai/ha, scale 0 to 100 (0 no effect, 100 complete control)
[13] = Preemergence, 31 g ai/ha, scale 0 to 100, 0 is no effect and 100 is complete control
[14] = Preemergence, 62 g ai/ha, scale 0 to 100 (0 no effect, 100 complete control)
[15] = Preemergence, 125 g ai/ha, scale 0 to 100 (0 no effect, 100 complete control)

O=C1NCC(c2cccc(OC(F)F)c2)C1C(=O)Nc1ccccc1F (stereo not shown) [Compound 223]
Plant response rating, Barnyardgrass (barnyardgrass [1]; [6]): 90 | Plant response rating, Barnyardgrass (barnyardgrass [1]; [7]): 80 | Barnyardgrass plant response rating (0 to 100 scale, 0 is no effect, 100 is complete control) (barnyardgrass [1]; Postemergence, 500 g ai/ha): 80 | Plant response rating, Barnyardgrass (barnyardgrass [1]; [8]): 90 | Plant response rating, Pigweed (pigweed; [6]): 20 | Plant response rating, Pigweed (pigweed; [7]): 40 | Pigweed plant response rating (0 to 100 scale, 0 is no effect, 100 is complete control) (pigweed; Postemergence, 500 g ai/ha): 60 | Plant response rating, Pigweed (pigweed; [8]): 50 | Plant response rating, Corn (corn [2]; 125 g ai/ha, 0 to 100 scale, 0 is no effect, 100 is complete control): 0 | Corn plant response rating (0 to 100 scale, 0 is no effect, 100 is complete control) (corn [2]; 500 g ai/ha): 50 | Plant response rating, Rice (rice): 0 | Plant response rating, Ducksalad (ducksalad): 100 | Plant response rating, Barnyardgrass (barnyardgrass [3]): 75 | Plant response rating, Corn (corn [4]; [9]): 0 | Plant response rating, Corn (corn [4]; [10]): 0 | Plant response rating, Corn (corn [4]; [11]): 0 | Plant response rating, Corn (corn [4]; [12]): 5 | Corn plant response rating (corn [4]; [13]): 0 | Corn plant response rating (corn [4]; [14]): 0 | Plant response rating, Corn (corn [4]; [15]): 0 | Plant response rating (scale of 0 to 100), Corn (corn [4]; Preemergence, 250 g ai/ha): 45 | Plant response rating, Foxtail, Giant (foxtail, giant; [9]): 0 | Plant response rating, Foxtail, Giant (foxtail, giant; [10]): 35 | Plant response rating, Foxtail, Giant (foxtail, giant; [11]): 30 | Plant response rating, Foxtail, Giant (foxtail, giant; [12]): 35 | Foxtail, Giant plant response rating (foxtail, giant; [13]): 70 | Foxtail, Giant plant response rating (foxtail, giant; [14]): 85 | Plant response rating, Foxtail, Giant (foxtail, giant; [15]): 90 | Plant response rating (scale of 0 to 100), Foxtail, Giant (foxtail, giant; Preemergence, 250 g ai/ha): 98 | Plant response rating, Nutsedge, Yellow (nutsedge, yellow; [9]): 0 | Plant response rating, Nutsedge, Yellow (nutsedge, yellow; [10]): 0 | Plant response rating, Nutsedge, Yellow (nutsedge, yellow; [11]): 0 | Plant response rating, Nutsedge, Yellow (nutsedge, yellow; [12]): 0 | Nutsedge, Yellow plant response rating (nutsedge, yellow; [13]): 100 | Nutsedge, Yellow plant response rating (nutsedge, yellow; [14]): 0 | Plant response rating, Nutsedge, Yellow (nutsedge, yellow; [15]): 0 | Plant response rating (scale of 0 to 100), Nutsedge, Yellow (nutsedge, yellow; Preemergence, 250 g ai/ha): 0 | Plant response rating, Soybean (soybean; [9]): 10 | Plant response rating, Soybean (soybean; [10]): 0 | Plant response rating, Soybean (soybean; [11]): 0 | Plant response rating, Soybean (soybean; [12]): 30 | Soybean plant response rating (soybean; [13]): 0 | Soybean plant response rating (soybean; [14]): 5 | Plant response rating, Soybean (soybean; [15]): 5 | Plant response rating (scale of 0 to 100), Soybean (soybean; Preemergence, 250 g ai/ha): 15 | Plant response rating, Barnyardgrass (barnyardgrass [5]; [9]): 0 | Plant response rating, Barnyardgrass (barnyardgrass [5]; [10]): 0 | Plant response rating, Barnyardgrass (barnyardgrass [5]; [11]): 45 | Plant response rating, Barnyardgrass (barnyardgrass [5]; [12]): 60 | Barnyardgrass plant response rating (barnyardgrass [5]; [13]): 65 | Plant response rating, Barnyardgrass (barnyardgrass [5]; Preemergence, 62 g ai/ha, scale 0 to 100): 85 | Plant response rating, Barnyardgrass (barnyardgrass [5]; [15]): 90 | Plant response rating (scale of 0 to 100; 0 is no effect, 100 is complete control), Barnyardgrass (barnyardgrass [5]; Preemergence, 250 g ai/ha): 95 | Plant response rating, Oilseed Rape (oilseed rape; [9]): 0 | Plant response rating, Oilseed Rape (oilseed rape; [10]): 0 | Plant response rating, Oilseed Rape (oilseed rape; [11]): 0 | Plant response rating, Oilseed Rape (oilseed rape; [12]): 10 | Oilseed Rape plant response rating (oilseed rape; [13]): 0 | Oilseed Rape plant response rating (oilseed rape; [14]): 0 | Plant response rating, Oilseed Rape (oilseed rape; [15]): 0 | Plant response rating (scale of 0 to 100), Oilseed Rape (oilseed rape; Preemergence, 250 g ai/ha): 5
